From BindingDB's records for doi:10.1002/cmdc.200500009 (Bayer Healthcare, 2006)

target: T1, Endothelin-converting enzyme 1 (Rattus norvegicus, UniProt P42893); test: Inhibition Assay
T1 sequence (P42893 whole entry): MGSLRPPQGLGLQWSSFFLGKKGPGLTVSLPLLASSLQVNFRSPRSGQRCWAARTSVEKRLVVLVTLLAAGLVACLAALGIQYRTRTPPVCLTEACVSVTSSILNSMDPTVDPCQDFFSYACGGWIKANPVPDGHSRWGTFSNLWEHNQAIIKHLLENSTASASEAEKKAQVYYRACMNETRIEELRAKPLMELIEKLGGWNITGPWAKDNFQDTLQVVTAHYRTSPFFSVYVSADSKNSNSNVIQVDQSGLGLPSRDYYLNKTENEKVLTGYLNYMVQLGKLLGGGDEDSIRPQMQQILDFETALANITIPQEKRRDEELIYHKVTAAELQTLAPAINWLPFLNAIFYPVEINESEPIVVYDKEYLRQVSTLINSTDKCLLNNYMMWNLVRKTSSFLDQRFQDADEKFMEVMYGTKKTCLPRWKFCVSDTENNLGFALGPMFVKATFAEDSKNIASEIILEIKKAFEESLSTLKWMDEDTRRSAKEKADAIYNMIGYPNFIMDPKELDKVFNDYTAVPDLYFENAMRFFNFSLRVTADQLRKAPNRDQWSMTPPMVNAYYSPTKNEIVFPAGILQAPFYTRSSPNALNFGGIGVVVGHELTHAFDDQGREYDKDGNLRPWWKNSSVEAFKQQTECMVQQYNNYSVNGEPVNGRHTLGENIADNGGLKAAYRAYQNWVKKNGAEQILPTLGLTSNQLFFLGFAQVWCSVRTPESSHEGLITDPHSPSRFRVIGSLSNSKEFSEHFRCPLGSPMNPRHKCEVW
Description: Inhibition assay using ECE.

SMILES | IC50 [nM]
CC(C)(C)CC(=O)Nc1ccc2c(c1)cc(C(=O)Nc1ccn[nH]1)n2Cc1ccccc1F | > 10000
CC(C)(C)CC(=O)Nc1ccc2c(c1)cc(C(=O)Nc1ccccc1)n2Cc1ccccc1F [ECE Inhibitor, 6] | 1800
CC(C)(C)CC(=O)Nc1ccc2c(c1)cc(C(=O)Nc1nc3ccccc3[nH]1)n2Cc1ccccc1F [ECE Inhibitor, 8] | > 10000
CC(C)(C)CC(=O)Nc1ccc2c(c1)cc(C(=O)Nc1ccc(Cl)nc1)n2Cc1ccccc1F [ECE Inhibitor, 9] | 220
CC(C)(C)CC(=O)Nc1ccc2c(c1)cc(C(=O)Nc1ccc(S(=O)(=O)Nc3ccccn3)cc1)n2Cc1ccccc1F [ECE Inhibitor, 10] | 410

The remaining lines, values ahead:

IC50 [nM] | SMILES
10 | CC(C)(C)CC(=O)Nc1ccc2c(c1)cc(C(=O)Nc1cccc(C(=O)Nc3ccc(S(N)(=O)=O)cc3)c1)n2Cc1ccccc1F
180 | CC(C)(C)CC(=O)Nc1ccc2c(c1)cc(C(=O)Nc1cncc(C(=O)O)c1)n2Cc1ccccc1F [ECE Inhibitor, 13]
10 | CC(C)(C)CC(=O)Nc1ccc2c(c1)cc(C(=O)Nc1cncc(C(=O)Nc3ccc(S(N)(=O)=O)cc3)c1)n2Cc1ccccc1F [ECE Inhibitor, 14]
